Experimental data: patent US10538532B2, “Hepatitis B antiviral agents” (ENANTA PHARMACEUTICALS, INC., priority 2016, dated 2020)
pEC50: −log10 of the molar value. Like-named read-outs stand apart in the source and are kept apart here.

Legend:
HBV = test: HepAD38 antiviral assay: reduction of viral product accumulation (virion DNA by qPCR, HBsAg or HBeAg by ELISA); assay type: cell-based, hepatitis B virus; conditions: HepAD38 cells, five days after compound addition, concentration reducing viral product accumulation by 50% relative to no drug controls, read-out: HepAD38 EC50
How it was run: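 EC50 values represent 50% reduction of viral product accumulation in lysates or supernatants relative to untreated controls, with virion DNA read by qPCR and HBsAg/HBeAg by ELISA. Measurements followed 5 days of treatment, or 8 days with compound renewed on d2 and d5. Cells were tetracycline-depleted HepAD38 at 35,000/well, dosed with a 1:200 dilution of DMSO stocks.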

[1] = Compound toxicity, ATPLite total ATP levels; assay type: cell-based; conditions: human, HepAD38 cells, three days after compound addition, concentration reducing total ATP levels by 50% relative to no drug controls
Protocol: Methods: HepAD38 cells are maintained as previously reported (Ladner et al, Antimicrob. Agents Chemother. 1997, […], 1715). Briefly, cells are passaged upon attaining confluency in DMEM/F12 media in the presence of 10% FBS, Penn/Strep, 250 μg/mL G418, and 1 ug/ml tetracycline. Novel compounds are screened by first washing cells three times with PBS to remove tetracycline, and plating in 96 well plates at 35,000 cells/well. Compounds dissolved in DMSO are then diluted 1:200 into wells containing cells. Five days after compound addition, material is harvested for analysis. For an extended 8 day analysis, cells are plated and treated as described above, but media and compound are refreshed on d2 and d5 post initial treatment.
Compound toxicity is evaluated by seeding cells at 15,000 cells/well and treating with compound as described above.

[2] = Hepatitis B virus, HePAD38, 120 h

Structure (SMILES) | pEC50 (HBV; [2]) | CC50 at 3 days ([1]; class symbols) [µM] | CC50 at 3 days ([1]; numeric bounds) [µM] | pEC50 (HBV)
O=C(Nc1cc(F)c(F)c(F)c1)c1ccc(Cl)c(S(=O)(=O)[C@H]2CC[C@H](O)CC2)c1 [Example 3] | 6.40 to 7.00 | > 25 | – | –
O=C(Nc1cc(F)c(F)c(F)c1)c1ccc(Cl)c(S(=O)(=O)[C@H]2CC[C@@H](O)CC2)c1 [Example 4] | 6.40 to 7.00 | > 25 | – | –
O=C(Nc1cc(F)c(F)c(F)c1)c1ccc(Cl)c(S(=O)(=O)CCCO)c1 [Example 7] | < 6.40 | > 25 | – | –
O=C(Nc1cc(F)c(F)c(F)c1)c1ccc(Cl)c(S(=O)(=O)[C@]2(F)CC[C@H](O)CC2)c1 [Example 8] | 6.40 to 7.00 | 10 to 25 | – | –
O=C(Nc1cc(F)c(F)c(F)c1)c1ccc(Cl)c(S(=O)(=O)[C@]2(F)CC[C@@H](O)CC2)c1 [Example 9] | 6.40 to 7.00 | 10 to 25 | – | –
C[C@]1(S(=O)(=O)c2cc(C(=O)Nc3cc(F)c(F)c(F)c3)ccc2Cl)CC[C@@H](O)CC1 [Example 16] | 6.40 to 7.00 | > 25 | – | –
C[C@]1(S(=O)(=O)c2cc(C(=O)Nc3cc(F)c(F)c(F)c3)ccc2Cl)CC[C@H](O)CC1 [Example 17] | 6.40 to 7.00 | > 25 | – | –
O=C(Nc1cc(F)c(F)c(F)c1)c1ccc(Cl)c(S(=O)(=O)Cc2cccnc2)c1 [Example 45] | 6.40 to 7.00 | > 25 | – | –
O=C(Nc1cc(F)c(F)c(F)c1)c1ccc(Cl)c(S(=O)(=O)Cc2ccncc2)c1 [Example 46] | 6.40 to 7.00 | > 25 | – | –
O=C(Nc1cc(F)c(F)c(F)c1)c1ccc(Cl)c(S(=O)(=O)Cc2ccccn2)c1 [Example 48] | < 6.40 | > 25 | – | –
O=C(Nc1cc(F)c(F)c(F)c1)c1ccc(Cl)c(S(=O)(=O)[C@H]2C3CCC2C[C@](O)(CO)C3)c1 [Example 60] | > 7.00 | > 25 | – | –
CC(c1ccncc1)S(=O)(=O)c1cc(C(=O)Nc2cc(F)c(F)c(F)c2)ccc1Cl (stereo not drawn) [Example 80] | > 7.00 | 10 to 25 | – | –
O=C(Nc1cc(F)c(F)c(F)c1)c1ccc(Cl)c(S(=O)(=O)C2CC[C@H](O)[C@@H](O)CC2)c1 [Example 84] | > 7.00 | > 25 | – | –
CC(=O)[C@]1(O)CC2CC[C@@H](C1)[C@H]2S(=O)(=O)c1cc(C(=O)Nc2cc(F)c(F)c(F)c2)ccc1Cl [Example 150] | > 7.00 | 10 to 25 | – | –
CN(C)C[C@]1(O)CC2CC[C@@H](C1)[C@H]2S(=O)(=O)c1cc(C(=O)Nc2cc(F)c(F)c(F)c2)ccc1Cl [Example 154] | > 7.00 | < 10 | – | –
CC1=NO[C@@]2(C1)CC1CC[C@@H](C2)[C@H]1S(=O)(=O)c1cc(C(=O)Nc2cc(F)c(F)c(F)c2)ccc1Cl [Example 188] | > 7.00 | – | > 12.5 | –
O=C(Nc1cc(F)c(F)c(F)c1)c1ccc(Cl)c(S(=O)(=O)[C@H]2C3CC[C@H]2C[C@](O)(c2cc(-c4ccccc4)on2)C3)c1 [Example 220] | > 7.00 | < 10 | – | –
C[C@]1(O)C2CCC1C[C@@H](S(=O)(=O)c1cc(C(=O)Nc3cc(F)c(F)c(F)c3)ccc1Cl)C2 [Example 246] | 6.40 to 7.00 | 10 to 25 | – | –
CC[C@]1(O)C2CCC1C[C@@H](S(=O)(=O)c1cc(C(=O)Nc3cc(F)c(F)c(F)c3)ccc1Cl)C2 [Example 252] | > 7.00 | – | > 6.25 | –
C[C@]1(O)C2CCC1C[C@H](S(=O)(=O)c1cc(C(=O)Nc3cc(F)c(F)c(F)c3)ccc1Cl)C2 [Example 253] | – | > 25 | – | > 7.00
O=C(Nc1cc(F)c(F)c(F)c1)c1ccc(Cl)c(S(=O)(=O)[C@H]2CC3CCC(C2)[C@]3(O)Cn2cccn2)c1 [Example 256] | > 7.00 | – | > 12.5 | –
[N-]=[N+]=NC[C@]1(O)C2CCC1C[C@@H](S(=O)(=O)c1cc(C(=O)Nc3cc(F)c(F)c(F)c3)ccc1Cl)C2 [Example 257] | > 7.00 | > 25 | – | –
[N-]=[N+]=NC[C@]1(O)C2CCC1C[C@H](S(=O)(=O)c1cc(C(=O)Nc3cc(F)c(F)c(F)c3)ccc1Cl)C2 [Example 258] | > 7.00 | – | > 12.5 | –
CS(=O)(=O)NC[C@]1(O)C2CCC1C[C@@H](S(=O)(=O)c1cc(C(=O)Nc3cc(F)c(F)c(F)c3)ccc1Cl)C2 [Example 259] | > 7.00 | – | > 12.5 | –
O=C1NC[C@]2(O1)C1CCC2C[C@@H](S(=O)(=O)c2cc(C(=O)Nc3cc(F)c(F)c(F)c3)ccc2Cl)C1 [Example 260] | > 7.00 | > 25 | – | –

Structure (SMILES) | pEC50 (HBV; [2]) | CC50 at 3 days ([1]; class symbols) [µM] | CC50 at 3 days ([1]; numeric bounds) [µM] | pEC50 (HBV)
C=C[C@]1(O)CC2CC[C@@H](C1)[C@H]2S(=O)(=O)c1cc(C(=O)Nc2cc(F)c(F)c(F)c2)ccc1Cl [Example 267] | > 7.00 | > 25 | – | –
[N-]=[N+]=NC[C@@]1(O)CC2CC[C@@H](C1)[C@H]2S(=O)(=O)c1cc(C(=O)Nc2cc(F)c(F)c(F)c2)ccc1Cl [Example 271] | > 7.00 | – | > 12.5 | –
NC(=O)OC[C@@H]1CC2CC[C@@H](C1)[C@H]2S(=O)(=O)c1cc(C(=O)Nc2cc(F)c(F)c(F)c2)ccc1Cl [Example 272] | > 7.00 | – | > 12.5 | –
CS(=O)(=O)NC[C@]1(O)C2CCC1C[C@H](S(=O)(=O)c1cc(C(=O)Nc3cc(F)c(F)c(F)c3)ccc1Cl)C2 [Example 273] | > 7.00 | – | > 12.5 | –
O=C1NC[C@]2(O1)C1CCC2C[C@H](S(=O)(=O)c2cc(C(=O)Nc3cc(F)c(F)c(F)c3)ccc2Cl)C1 [Example 274] | > 7.00 | > 25 | – | –
N#CC[C@]1(O)C2CCC1C[C@@H](S(=O)(=O)c1cc(C(=O)Nc3cc(F)c(F)c(F)c3)ccc1Cl)C2 [Example 275] | > 7.00 | > 25 | – | –
O=C(Nc1cc(F)c(F)c(F)c1)c1ccc(Cl)c(S(=O)(=O)[C@H]2CC3CCC(C2)[C@]3(O)Cc2nnn[nH]2)c1 [Example 276] | < 6.40 | > 25 | – | –
NC[C@@]1(O)CC2CC[C@@H](C1)[C@H]2S(=O)(=O)c1cc(C(=O)Nc2cc(F)c(F)c(F)c2)ccc1Cl [Example 277] | 6.40 to 7.00 | < 10 | – | –
CCS(=O)(=O)NC[C@@]1(O)CC2CC[C@@H](C1)[C@H]2S(=O)(=O)c1cc(C(=O)Nc2cc(F)c(F)c(F)c2)ccc1Cl [Example 278] | 6.40 to 7.00 | > 25 | – | –
O=C(Nc1cc(F)c(F)c(F)c1)c1ccc(Cl)c(S(=O)(=O)[C@H]2C3CC[C@H]2C[C@@](O)(CNS(=O)(=O)C2CC2)C3)c1 [Example 279] | 6.40 to 7.00 | > 25 | – | –
CC(=O)NC[C@@]1(O)CC2CC[C@@H](C1)[C@H]2S(=O)(=O)c1cc(C(=O)Nc2cc(F)c(F)c(F)c2)ccc1Cl [Example 280] | 6.40 to 7.00 | > 25 | – | –
O=C(Nc1cc(F)c(F)c(F)c1)c1ccc(Cl)c(S(=O)(=O)[C@H]2C3CC[C@H]2C[C@](O)(c2ncc[nH]2)C3)c1 [Example 281] | > 7.00 | > 25 | – | –
C[C@]1(O)CC2CC[C@@H](C1)[C@H]2S(=O)(=O)c1cc(C(=O)Nc2cc(F)c(F)c(F)c2)ccc1Cl [Example 282] | > 7.00 | > 25 | – | –
O=C(Nc1cc(F)c(F)c(F)c1)c1ccc(Cl)c(S(=O)(=O)C2C[C@H]3CC[C@@H](C2)O3)c1 (stereo partly drawn) [Example 356] | 6.40 to 7.00 | – | – | –
O=C(Nc1cc(F)c(F)c(F)c1)c1ccc(Cl)c(S(=O)(=O)[C@H]2C[C@H]3CC[C@@H](C2)O3)c1 [Example 357] | 6.40 to 7.00 | – | – | –
CC(CO)NCCOC[C@]1(O)CC2CC[C@@H](C1)[C@H]2S(=O)(=O)c1cc(C(=O)Nc2cc(F)c(F)c(F)c2)ccc1Cl (stereo partly drawn) [Example 358] | 6.40 to 7.00 | – | – | –
O=C(Nc1cc(F)c(F)c(F)c1)c1ccc(Cl)c(S(=O)(=O)[C@H]2CC3CCC(C2)[C@@H]3N2CCOCC2)c1 [Example 359] | > 7.00 | – | – | –
O=C(Nc1cc(F)c(F)c(F)c1)c1ccc(Cl)c(S(=O)(=O)[C@H]2CC3CCC(C2)[C@@H]3O)c1 [Example 360] | – | – | – | > 7.00
O=C(Nc1cc(F)c(F)c(F)c1)c1ccc(Cl)c(S(=O)(=O)[C@H]2CC3CCC(C2)[C@]3(O)CC(O)CO)c1 (stereo partly drawn) [Example 361] | > 7.00 | – | – | –
Cn1ccnc1[C@]1(O)C2CCC1C[C@@H](S(=O)(=O)c1cc(C(=O)Nc3cc(F)c(F)c(F)c3)ccc1Cl)C2 [Example 362] | > 7.00 | – | – | –
CC(C)(O)C(O)[C@]1(O)C2CCC1C[C@H](S(=O)(=O)c1cc(C(=O)Nc3cc(F)c(F)c(F)c3)ccc1Cl)C2 (stereo partly drawn) [Example 363] | > 7.00 | – | – | –
CC(C)(C)OC(=O)N[C@@H](Cc1ccccc1)C(=O)NC[C@]1(O)C2CCC1C[C@@H](S(=O)(=O)c1cc(C(=O)Nc3cc(F)c(F)c(F)c3)ccc1Cl)C2 [Example 364] | > 7.00 | – | – | –
CC(C)(C)OC(=O)N1CCC[C@H]1C(=O)NC[C@]1(O)C2CCC1C[C@@H](S(=O)(=O)c1cc(C(=O)Nc3cc(F)c(F)c(F)c3)ccc1Cl)C2 [Example 365] | > 7.00 | – | – | –
N[C@@H](Cc1ccccc1)C(=O)NC[C@]1(O)C2CCC1C[C@@H](S(=O)(=O)c1cc(C(=O)Nc3cc(F)c(F)c(F)c3)ccc1Cl)C2 [Example 366] | 6.40 to 7.00 | – | – | –
